ChEMBL document CHEMBL1134969, “Synthesis and evaluation of water-soluble paclitaxel prodrugs” (Bioorg Med Chem Lett, 2002)

What was measured:
L1210 [1] = assay: Cytotoxicity expressed as concentration required to inhibit cell growth by 50% on continuous exposure time of 72 hr in L1210 cell line by MTT assay.; type: functional, cell-based; conditions: Mus musculus, L1210, 72 h
L1210 [2] = assay: Cytotoxicity expressed as concentration required to inhibit cell growth by 50% on continuous exposure time of 96h in L1210 cell line by MTT assay.; type: functional, cell-based; conditions: Mus musculus, L1210, 96 h
Mus musculus [3] = assay: Percentage change in the body weight on day 20 after intravenous administration (8 mg/Kg) against human breast cancer xenograph Bcap-37 (grown sc in athymic mice); type: functional
Mus musculus [4] = assay: Percentage change in the body weight on day 20 after intravenous administration (10 mg/kg) against B16 melanoma (implanted subcutaneously in mice).; type: functional
Mus musculus [5] = assay: Tumor inhibition expressed as (average tumor weight of treated group/average tumor weight of control group)*100 at a dose of (8 mg/kg); type: functional
Mus musculus [6] = assay: Tumor inhibition expressed as (average tumor weight of treated group/average tumor weight of control group)*100 at a dose of 10 mg/kg; type: functional
PG-49 cell line [7] = assay: Cytotoxicity expressed as concentration required to inhibit cell growth by 50% on continuous exposure time of 72 hr in PG-49 cell line by MTT assay.; type: functional, cell-based; conditions: Homo sapiens, PG-49, 72 h
PG-49 cell line [8] = assay: Cytotoxicity expressed as concentration required to inhibit cell growth by 50% on continuous exposure time of 96h in PG-49 cell line by MTT assay.; type: functional, cell-based; conditions: Homo sapiens, PG-49, 96 h
[9] = Toxicity expressed in terms of number of toxic deaths after administration (10 mg/Kg) in mice; out of 10 tested; conditions: mouse, in vivo
[10] = Toxicity expressed in terms of number of toxic deaths after administration (8 mg/Kg) in athymic mice; out of 6 tested; conditions: mouse, in vivo

CC(=O)O[C@H]1C(=O)[C@@]2(C)[C@H]([C@H](OC(=O)c3ccccc3)[C@]3(O)C[C@H](OC(=O)[C@H](O)[C@@H](NC(=O)c4ccccc4)c4ccccc4)C(C)=C1C3(C)C)[C@]1(OC(C)=O)CO[C@@H]1C[C@@H]2O [PACLITAXEL]
IC50 (L1210 [1]): 0.58 nM
IC50 (L1210 [2]): 0.09 nM
Body weight change (Mus musculus [3]): 16.9%
Body weight change (Mus musculus [4]): 7.8%
Tumor inhibition (Mus musculus [5]): 78.02%
Tumor inhibition (Mus musculus [6]): 71.4%
IC50 (PG-49 cell line [7]): 2.14 nM
IC50 (PG-49 cell line [8]): 0.31 nM
Toxicity [9]: 2
Toxicity [10]: 0
